Values quoted from earlier work, collected in patent publication US5514673A, “Pharmaceutical composition containing lipophilic drugs” (priority 1993, dated 1996).

Key:
[1] = for first pass effect: oral
[2] = in vivo
[3] = sublingual and buccal, sex hormone compositions
[4] = animal tests
[5] = physiological saline solution

| Compound | oral effectiveness [1] | first pass effect [1] | nephrotoxicity and haemolytic activity [2] | effect on the absorption [3] | influence on drug uptake [4] | suitability of intranasal administration [5] |
| --- | --- | --- | --- | --- | --- | --- |
| CC(=O)[C@H]1CC[C@H]2[C@@H]3CCC4=CC(=O)CC[C@]4(C)[C@H]3CC[C@]12C [Progesterone, progesterone] | very limited oral effectiveness | high first pass effect | – | – | – | – |
| dimethyl-β-cyclodextrin | – | – | nephrotoxicity and haemolytic activity | virtually no effect on the absorption | adversely influence the drug uptake | – |
| C[C@]12CC[C@@H]3c4ccc(O)cc4CC[C@H]3[C@@H]1CC[C@@H]2O [17β-estradiol] | very limited oral effectiveness | high first pass effect | – | – | – | unsuitable |
